ChEMBL document CHEMBL6078674, “Genome Mining of the Marine-Derived Fungus Trichoderma erinaceum F1-1 Unearths Bergamotene-Type Sesquiterpenoids” (J Nat Prod, 2024)

Columns and labels:
RAW264.7 = experiment: Antiinflammatory activity in mouse RAW264.7 cells; format: functional, cell-based
RKO = experiment: Cytotoxicity against human RKO cells; format: functional, cell-based
A549 = experiment: Cytotoxicity against human A549 cells; format: functional, cell-based
Staphylococcus aureus = experiment: Antibacterial activity against methicillin-resistant Staphylococcus aureus; format: functional, organism-based

Measured: IC50

CC(C)=CCC[C@]1(C)[C@@H]2C[C@H]1C(C)=C[C@H]2O[C@H]1O[C@H](CO)[C@@H](O)[C@H](O)[C@H]1O
> 50 µM: all assays above

C/C(=C\CC[C@]1(C)[C@H]2CC(=O)[C@@H](C)[C@@H]1C2)CO
> 50 µM: all assays above

C/C(=C\CC[C@]1(C)[C@H]2CC(=O)[C@](C)(O)[C@@H]1C2)CO
> 50 µM: all assays above

CC(=O)[C@@H]1C[C@H](CC(=O)O)[C@@]1(C)CCC=C(C)C
> 50 µM: all assays above

CC(C)=CCC[C@]1(C)[C@@H]2C[C@H]1[C@@](C)(O)C(=O)[C@H]2O
> 50 µM: all assays above

CC(C)=CCC[C@]1(C)[C@@H]2C[C@H]1[C@@](C)(O)C(=O)C2=O
> 50 µM: all assays above

CC(C)=CCC[C@]1(C)[C@H]2CC(=O)[C@](C)(O[C@H]3O[C@H](CO)[C@@H](O)[C@H](O)[C@H]3O)[C@@H]1C2
> 50 µM: all assays above

C/C(=C\CC[C@]1(C)[C@H]2CC(=O)[C@](C)(O)[C@@H]1C2)C(=O)O
> 50 µM: all assays above
